Legend:
PPAR-γ = molecular target: T1, PPAR-γ (Homo sapiens, UniProt P37231); assay: Transient transfection and transcription assay (luciferase reporter, U2OS cells); format: cell-based; settings: 24 h treatment
T1 construct: expressed in transfected cells; host or cells: U2OS cells, transiently transfected with pcDNA3.1 expression vectors (FuGene6)
T1 sequence (P37231 1-505): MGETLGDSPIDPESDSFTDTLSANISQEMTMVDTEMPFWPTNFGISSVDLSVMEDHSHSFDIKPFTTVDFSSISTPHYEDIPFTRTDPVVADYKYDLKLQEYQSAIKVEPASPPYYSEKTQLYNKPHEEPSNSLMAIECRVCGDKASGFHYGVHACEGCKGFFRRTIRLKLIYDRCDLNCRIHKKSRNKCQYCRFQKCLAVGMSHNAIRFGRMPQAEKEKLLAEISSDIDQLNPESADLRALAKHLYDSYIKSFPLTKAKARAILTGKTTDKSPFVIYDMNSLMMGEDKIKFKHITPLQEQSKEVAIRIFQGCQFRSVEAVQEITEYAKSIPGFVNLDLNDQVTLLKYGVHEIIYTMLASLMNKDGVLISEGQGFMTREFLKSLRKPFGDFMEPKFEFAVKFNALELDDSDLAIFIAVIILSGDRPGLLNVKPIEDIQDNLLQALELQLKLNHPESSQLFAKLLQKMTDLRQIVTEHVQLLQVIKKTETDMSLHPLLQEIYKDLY
T1 sequence (P19793 1-462 partner): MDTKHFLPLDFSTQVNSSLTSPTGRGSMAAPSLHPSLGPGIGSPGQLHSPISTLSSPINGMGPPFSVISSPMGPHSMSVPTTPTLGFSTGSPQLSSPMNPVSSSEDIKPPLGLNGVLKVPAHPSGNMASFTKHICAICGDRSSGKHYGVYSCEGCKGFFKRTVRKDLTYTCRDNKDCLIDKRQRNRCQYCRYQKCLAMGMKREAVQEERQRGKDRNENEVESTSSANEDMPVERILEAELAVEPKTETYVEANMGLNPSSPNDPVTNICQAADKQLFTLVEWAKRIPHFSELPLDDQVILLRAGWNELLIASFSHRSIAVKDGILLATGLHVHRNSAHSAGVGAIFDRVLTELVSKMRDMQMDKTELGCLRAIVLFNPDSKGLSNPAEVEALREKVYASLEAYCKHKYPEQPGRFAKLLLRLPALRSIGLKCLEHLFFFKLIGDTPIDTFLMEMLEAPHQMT
Experimental: cDNAs for Human RXR, PPAR were obtained by RTPCR from the human liver or adipose tissues. Amplified cDNAs were cloned into pcDNA3.1 expression vector and the inserts were confirmed by sequencing. U2OS cells were cultured in McCoy's 5A with 10% heat-inactivated fetal bovine serum in a humidified 5% CO2 atmosphere at 37° C. Cells were seeded in 96-well plates the day before transfection to give a confluence of 50-80% at transfection. A total of 60 ng of DNA containing 10 ng of hRXR, 10 ng of pCMV Gal, 10 ng of nuclear receptor expression vectors and 30 ng of the corresponding reporters were cotransfected per well using FuGene6 transfection reagent according to the manufacturer's instructions. […] The final concentration of DMSO in culture medium was 0.1%. […] Luciferase activity was monitored using the luciferase assay kit according to the manufacturers instructions. Light emission was read in a Labsystems Ascent Fluoroskan reader. To measure galactosidase activity to normalize the luciferase data, 50 IL of supernatant from each transfection lysate was transferred to a new microplate. Galactosidase assays were performed in the microwell plates using a kit from Promega and read in a microplate reader. Compounds were tested in five concentrations ranging from 0.01 to 10 μM. […] The results were expressed as means (SD).

SPC-A1 = assay: Growth inhibition, modified MTT assay, SPC-A1; format: cell-based; settings: SPCA1, mean of 3 independent tests
Summary of the method: (§1)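 Cells seeded 24 h in 10% FCS medium, switched to serum-free medium for 24 h, then exposed to graded compound concentrations in triplicate. Viability read by MTT (4 h), formazan dissolved in DMSO, OD at 492 nm; IC50 from sigmoidal fit, mean of 3 independent tests.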

HepG2 = assay: Growth inhibition, modified MTT assay, HepG2; format: cell-based; settings: Homo sapiens, mean of 3 independent tests
Summary of the method: as §1

T24 = assay: Growth inhibition, modified MTT assay, T24; format: cell-based; settings: Homo sapiens, T-24, mean of 3 independent tests
Summary of the method: as §1

MCF-7 = assay: Growth inhibition, modified MTT assay, MCF-7; format: cell-based; settings: Homo sapiens, MCF7; MCF-7, MTT, mean of 3 independent tests
Summary of the method: as §1

Row | EC50 (PPAR-γ) | IC50 (HepG2) | melting point | IC50 (T24) | IC50 (MCF-7) | Compound | IC50 (SPC-A1)
1 | 6.46 µM | > 50 µM | 107 to 108 °C | > 50 µM | > 50 µM | CC(Cc1ccc(Oc2cc(N3CCN(CC(=O)c4ccccc4)CC3)nc(N)n2)cc1)(Oc1ccccc1)C(=O)O (centres unmarked) [Compound 18, 3-{4-{2-Amino-6-[4-(2-oxo-2-phenyl-ethyl)-piperazin-1-yl]-pyrimidin-4-yloxy}-phenyl}-2-methyl-2-phenoxy-propionic acid] | > 50 µM
2 | 6.46 µM | > 50 µM | 113 to 115 °C | > 50 µM | > 50 µM | CC(Cc1ccc(Oc2cc(N3CCN(Cc4cccc(F)c4)CC3)nc(N)n2)cc1)(Oc1ccccc1)C(=O)O (centres unmarked) [Compound 12, 3-{4-{2-Amino-6-[4-(3-fluoro-benzyl)-piperazin-1-yl]-pyrimidin-4-yloxy}-phenyl}-2-methyl-2-phenoxy-propionic acid] | > 50 µM
3 | 4.68 µM | 29.3 µM | 107 to 109 °C | 19.6 µM | 14.6 µM | CC(Cc1ccc(Oc2cc(N3CCN(Cc4ccccc4)CC3)ncn2)cc1)(Oc1ccccc1)C(=O)O (centres unmarked) [Compound 28, 3-{4-[6-(4-benzyl-piperazin-1-yl)-pyrimidin-4-yloxy]-phenyl}-2-methyl-2-phenoxy-propionic acid] | 28.6 µM
4 | 6.31 µM | 49.5 µM | 110 to 111 °C | – | > 50 µM | CC(Cc1ccc(Oc2cc(N3CCN(c4ccccn4)CC3)nc(N)n2)cc1)(Oc1ccccc1)C(=O)O (centres unmarked) [Compound 19, 3-{4-[2-Amino-6-(4-pyridin-2-yl-piperazin-1-yl)-pyrimidin-4-yloxy]-phenyl}-2-methyl-2-phenoxy-propionic acid] | 42.5 µM
5 | 2.95 µM | > 50 µM | 136 to 138 °C | > 50 µM | > 50 µM | CN(C)c1nc(Oc2ccc(CC(C)(Oc3ccccc3)C(=O)O)cc2)cc(N2CCN(Cc3ccccc3)CC2)n1 (centres unmarked) [Compound 49, 3-{4-[6-(4-Benzyl-piperazin-1-yl)-2-dimethylamino-pyrimidin-4-yloxy]-phenyl}-2-methyl-2-phenoxy-propionic acid] | > 50 µM
6 | 6.46 µM | > 50 µM | 190 to 192 °C | > 50 µM | > 50 µM | CC(Cc1ccc(Oc2cc(N3CCN(Cc4ccc5c(c4)OCO5)CC3)nc(N)n2)cc1)(Oc1ccccc1)C(=O)O (centres unmarked) [Compound 5] | > 50 µM
7 | 5.13 µM | > 50 µM | 87 to 89 °C | > 50 µM | 40.6 µM | CC(Cc1ccc(Oc2cc(N3CCN(Cc4cccc(Cl)c4)CC3)nc(N)n2)cc1)(Oc1ccccc1)C(=O)O (centres unmarked) [Compound 11, 3-{4-{2-Amino-6-[4-(3-chloro-benzyl)-piperazin-1-yl]-pyrimidin-4-yloxy}-phenyl}-2-methyl-2-phenoxy-propionic acid] | 47.6 µM
8 | 6.31 µM | 48 µM | 119 to 120 °C | 41 µM | 30 µM | CC(Cc1ccc(Oc2cc(N3CCN(Cc4cccc(Br)c4)CC3)nc(N)n2)cc1)(Oc1ccccc1)C(=O)O (centres unmarked) [Compound 16, 3-{4-{2-Amino-6-[4-(3-bromo-benzyl)-piperazin-1-yl]-pyrimidin-4-yloxy}-phenyl}-2-methyl-2-phenoxy-propionic acid] | 37 µM
9 | 6.03 µM | > 50 µM | 106 to 107 °C | > 50 µM | 33.7 µM | CCNc1nc(Oc2ccc(CC(C)(Oc3ccccc3)C(=O)O)cc2)cc(N2CCN(Cc3ccccc3)CC2)n1 (centres unmarked) [Compound 50, 3-{4-[6-(4-Benzyl-piperazin-1-yl)-2-ethylamino-pyrimidin-4-yloxy]-phenyl}-2-methyl-2-phenoxy-propionic acid] | 46.6 µM

Continued, molecule first:

Row | Compound | EC50 (PPAR-γ) | IC50 (HepG2) | melting point | IC50 (T24) | IC50 (MCF-7) | IC50 (SPC-A1)
10 | CC(Cc1ccc(Oc2cc(N3CCN(Cc4ccccc4)CC3)nc(Oc3ccccc3)n2)cc1)(Oc1ccccc1)C(=O)O (centres unmarked) [Compound 43, 3-{4-[6-(4-Benzyl-piperazin-1-yl)-2-phenoxy-pyrimidin-4-yloxy]-phenyl}-2-methyl-2-phenoxy-propionic acid] | 1.62 µM | > 50 µM | 126 to 128 °C | > 50 µM | 33.5 µM | 32.5 µM
11 | CC(Cc1ccc(Oc2cc(N3CCN(Cc4ccccc4)CC3)nc(N3CCOCC3)n2)cc1)(Oc1ccccc1)C(=O)O (centres unmarked) [Compound 53, 3-{4-[6-(4-Benzyl-piperazin-1-yl)-2-morpholin-4-yl-pyrimidin-4-yloxy]-phenyl}-2-methyl-2-phenoxy-propionic acid] | 3.98 µM | 22.2 µM | 127 to 129 °C | 15.8 µM | 12.5 µM | 22.4 µM
12 | CC(Cc1ccc(Oc2cc(N3CCN(Cc4ccccc4)CC3)nc(N3CCCC3)n2)cc1)(Oc1ccccc1)C(=O)O (centres unmarked) [Compound 54, 3-{4-[6-(4-Benzyl-piperazin-1-yl)-2-pyrrolidin-1-yl-pyrimidin-4-yloxy]-phenyl}-2-methyl-2-phenoxy-propionic acid] | 3.8 µM | > 50 µM | 126 to 127 °C | > 50 µM | > 50 µM | > 50 µM
13 | CCN(CC)c1nc(Oc2ccc(CC(C)(Oc3ccccc3)C(=O)O)cc2)cc(N2CCN(Cc3ccccc3)CC2)n1 (centres unmarked) [Compound 51, 3-{4-[6-(4-Benzyl-piperazin-1-yl)-2-diethylamino-pyrimidin-4-yloxy]-phenyl}-2-methyl-2-phenoxy-propionic acid] | 7.08 µM | 37.5 µM | 120 to 121 °C | 21.9 µM | 27.6 µM | 36.6 µM
14 | CC(Cc1ccc(Oc2cc(Oc3ccccc3)nc(N3CCN(Cc4ccccc4)CC3)n2)cc1)(Oc1ccccc1)C(=O)O (centres unmarked) [Compound 44, 3-{4-[2-(4-Benzyl-piperazin-1-yl)-6-phenoxy-pyrimidin-4-yloxy]-phenyl}-2-methyl-2-phenoxy-propionic acid] | 4.68 µM | 35.2 µM | 135 to 137 °C | 11.1 µM | 15.4 µM | 14.1 µM
15 | CC(Cc1ccc(Oc2cc(N3CCN(Cc4ccccc4)CC3)nc(N3CCCCC3)n2)cc1)(Oc1ccccc1)C(=O)O (centres unmarked) [Compound 52, 3-{4-[6-(4-Benzyl-piperazin-1-yl)-2-piperidin-1-yl-pyrimidin-4-yloxy]-phenyl}-2-methyl-2-phenoxy-propionic acid] | 4.68 µM | 17.9 µM | 125 to 126 °C | 12.4 µM | 17.6 µM | 7.8 µM
16 | CC(Cc1ccc(Oc2cc(N3CCN(Cc4ccccc4)CC3)nc(NCc3ccccc3)n2)cc1)(Oc1ccccc1)C(=O)O (centres unmarked) [Compound 47, 3-{4-[2-Benzylamino-6-(4-benzyl-piperazin-1-yl)-pyrimidin-4-yloxy]-phenyl}-2-methyl-2-phenoxy-propionic acid] | 6.31 µM | > 50 µM | 104 to 106 °C | > 50 µM | 22.8 µM | 31.5 µM

From patent publication US8513233B2, “Pyrimidinyl-propionic acid derivatives and their use as PPAR agonists” (Shanghai Institute of Materia Medica, CAS, priority 2007, dated 2013)
